Test results published in PMC9668928, “Zandelisib (ME-401) in Japanese patients with relapsed or refractory indolent non-Hodgkin’s lymphoma: an open-label, multicenter, dose-escalation phase 1 study” (International Journal of Hematology, 2022).
“Also recorded” adds a separate entry of the source.

System: Japanese patients with R/R iNHL
Test: Phase 1 dose-escalation study: safety and tolerability (TEAEs, DLTs)
Assay type: in vivo
Source text: Japanese patients aged ≥ 20 years with R/R iNHL histologically confirmed as FL, nodal MZL, extra-nodal MZL of mucosa-associated lymphoid tissue, small lymphocytic lymphoma, lymphoplasmacytic lymphoma, Waldenström’s macroglobulinemia, or equivalent, according to World Health Organization classification, were eligible for this study. Other key eligibility criteria included being PI3K inhibitor therapy-naïve and an Eastern Cooperative Oncology Group performance status of 0 or 1. Further details of inclusion and exclusion criteria are provided in Supplementary Table 1.
This was a multicenter, open-label, dose-escalation, phase 1 study in Japan. All patients received oral zandelisib once daily at the same time each day, at least 1 h before or 2 h after a meal (CS: continuous schedule). Each treatment cycle was 28 days. Definitions of the DLTs described in this study can be found in Supplementary Table 2. The observation period for DLTs was from day 1 of Cycle 1 to day 1 of Cycle 2. Zandelisib was administered until disease progression or unacceptable toxicity. In the event of an AE, patients could be switched to IDT. In the case of disease progression while receiving IDT, patients could be switched back to CS per the investigator’s discretion.
A starting dose of 45 mg was set for investigating patient safety. This study adopted a standard 3 + 3 design. […] If DLTs occurred in 2 or more patients, the study was planned to be suspended pending a safety evaluation. If a DLT occurred in 1 patient, 3 further patients were added to cohort 1. If DLTs occurred in 0/3 or 1/6 patients in cohort 1, dosing in cohort 2 commenced (n = 6; 60 mg/day). If the incidence of DLTs in cohort 2 was ≤ 1/6, the maximum tolerated dose was not determined, and the dose in cohort 2 was to be selected as the recommended Japanese phase 2 dose.
The primary endpoint was the safety [number of patients with treatment-emergent adverse events (TEAEs), based on Common Terminology Criteria for Adverse Events version 5.0] and tolerability (including laboratory values, vital signs, and electrocardiogram performance) of zandelisib in Japanese patients. Hepatobiliary disorder, aspartate/alanine (AST/ALT) increased, diarrhea/colitis, organizing pneumonia, stomatitis, or rash were defined as irAEs in this manuscript. Secondary endpoints included PK (plasma concentrations and PK parameters) and the efficacy of zandelisib. […] The PK parameters for Cycle 1 day 1 and Cycle 2 day 1 were calculated for each patient by non-compartmental analysis. PK parameters included maximum plasma drug concentration (Cmax), area under the plasma concentration–time curve (AUC) from time zero to the last measurable point (AUC0–t), the AUC from time zero to infinity (AUC0-inf), and terminal half-life (t1/2).

CN1CCC(c2ccccc2CC(C)(C)Nc2nc(N3CCOCC3)nc(-n3c(C(F)F)nc4ccccc43)n2)CC1 [zandelisib]
TEAE Infections and infestations (SOC), All grades (60 mg, n = 6): 4 (66.7) n (%) | TEAE Infections and infestations (SOC), Grade ≥ 3 (60 mg, n = 6): 0 n (%) | TEAE Infusion site extravasation, All grades (60 mg, n = 6): 0 n (%) | TEAE Infusion site extravasation, Grade ≥ 3 (60 mg, n = 6): 0 n (%) | TEAE Insomnia, All grades (60 mg, n = 6): 0 n (%) | TEAE Insomnia, Grade ≥ 3 (60 mg, n = 6): 0 n (%) | TEAE Investigations (SOC), All grades (60 mg, n = 6): 6 (100.0) n (%) | TEAE Investigations (SOC), Grade ≥ 3 (60 mg, n = 6): 4 (66.7) n (%) | TEAE Joint effusion, All grades (60 mg, n = 6): 0 n (%) | TEAE Joint effusion, Grade ≥ 3 (60 mg, n = 6): 0 n (%) | TEAE Lymphocyte count decreased, All grades (60 mg, n = 6): 1 (16.7) n (%) | TEAE Lymphocyte count decreased, Grade ≥ 3 (60 mg, n = 6): 0 n (%) | TEAE Metabolism and nutrition disorders (SOC), All grades (60 mg, n = 6): 0 n (%) | TEAE Metabolism and nutrition disorders (SOC), Grade ≥ 3 (60 mg, n = 6): 0 n (%) | TEAE Muscle spasms, All grades (60 mg, n = 6): 0 n (%) | TEAE Muscle spasms, Grade ≥ 3 (60 mg, n = 6): 0 n (%) | TEAE Musculoskeletal and connective tissue disorders (SOC), All grades (60 mg, n = 6): 2 (33.3) n (%) | TEAE Musculoskeletal and connective tissue disorders (SOC), Grade ≥ 3 (60 mg, n = 6): 0 n (%) | TEAE Nasopharyngitis, All grades (60 mg, n = 6): 3 (50.0) n (%) | TEAE Nasopharyngitis, Grade ≥ 3 (60 mg, n = 6): 0 n (%) | TEAE Nausea, All grades (60 mg, n = 6): 2 (33.3) n (%) | TEAE Nausea, Grade ≥ 3 (60 mg, n = 6): 0 n (%) | TEAE Nervous system disorders (SOC), All grades (60 mg, n = 6): 0 n (%) | TEAE Nervous system disorders (SOC), Grade ≥ 3 (60 mg, n = 6): 0 n (%) | TEAE Neutrophil count decreased, All grades (60 mg, n = 6): 6 (100.0) n (%) | TEAE Neutrophil count decreased, Grade ≥ 3 (60 mg, n = 6): 4 (66.7) n (%) | TEAE Oral herpes, All grades (60 mg, n = 6): 0 n (%) | TEAE Oral herpes, Grade ≥ 3 (60 mg, n = 6): 0 n (%) | TEAE Organizing pneumonia, All grades (60 mg, n = 6): 0 n (%) | TEAE Organizing pneumonia, Grade ≥ 3 (60 mg, n = 6): 0 n (%) | TEAE Oropharyngeal pain, All grades (60 mg, n = 6): 2 (33.3) n (%) | TEAE Oropharyngeal pain, Grade ≥ 3 (60 mg, n = 6): 0 n (%) | TEAE Pancreatitis, All grades (60 mg, n = 6): 0 n (%) | TEAE Pancreatitis, Grade ≥ 3 (60 mg, n = 6): 0 n (%) | TEAE Pharyngeal paresthesia, All grades (60 mg, n = 6): 1 (16.7) n (%) | TEAE Pharyngeal paresthesia, Grade ≥ 3 (60 mg, n = 6): 0 n (%) | TEAE Pruritus, All grades (60 mg, n = 6): 1 (16.7) n (%) | TEAE Pruritus, Grade ≥ 3 (60 mg, n = 6): 0 n (%) | TEAE Psychiatric disorders (SOC), All grades (60 mg, n = 6): 0 n (%) | TEAE Psychiatric disorders (SOC), Grade ≥ 3 (60 mg, n = 6): 0 n (%) | TEAE Rash maculopapular, All grades (60 mg, n = 6): 4 (66.7) n (%) | TEAE Rash maculopapular, Grade ≥ 3 (60 mg, n = 6): 1 (16.7) n (%) | TEAE Rash, All grades (60 mg, n = 6): 3 (50.0) n (%) | TEAE Rash, Grade ≥ 3 (60 mg, n = 6): 0 n (%) | TEAE Renal and urinary disorders (SOC), All grades (60 mg, n = 6): 0 n (%) | TEAE Renal and urinary disorders (SOC), Grade ≥ 3 (60 mg, n = 6): 0 n (%) | TEAE Renal impairment, All grades (60 mg, n = 6): 0 n (%) | TEAE Renal impairment, Grade ≥ 3 (60 mg, n = 6): 0 n (%) | TEAE Respiratory, thoracic, and mediastinal disorders (SOC), All grades (60 mg, n = 6): 3 (50.0) n (%) | TEAE Respiratory, thoracic, and mediastinal disorders (SOC), Grade ≥ 3 (60 mg, n = 6): 0 n (%) | TEAE Skin and subcutaneous tissue disorders (SOC), All grades (60 mg, n = 6): 6 (100.0) n (%) | TEAE Skin and subcutaneous tissue disorders (SOC), Grade ≥ 3 (60 mg, n = 6): 1 (16.7) n (%) | TEAE Stomatitis, All grades (60 mg, n = 6): 1 (16.7) n (%) | TEAE Stomatitis, Grade ≥ 3 (60 mg, n = 6): 0 n (%) | TEAE Subcutaneous abscess, All grades (60 mg, n = 6): 1 (16.7) n (%) | TEAE Subcutaneous abscess, Grade ≥ 3 (60 mg, n = 6): 0 n (%) | TEAE Tinnitus, All grades (60 mg, n = 6): 0 n (%) | TEAE Tinnitus, Grade ≥ 3 (60 mg, n = 6): 0 n (%) | TEAE Urticaria, All grades (60 mg, n = 6): 0 n (%) | TEAE Urticaria, Grade ≥ 3 (60 mg, n = 6): 0 n (%) | TEAE Vomiting, All grades (60 mg, n = 6): 2 (33.3) n (%) | TEAE Vomiting, Grade ≥ 3 (60 mg, n = 6): 0 n (%) | TEAE WBC count decreased, All grades (60 mg, n = 6): 2 (33.3) n (%) | TEAE WBC count decreased, Grade ≥ 3 (60 mg, n = 6): 0 n (%) | maximum tolerated dose (MTD) (45 and 60 mg/day): not reached | dose-limiting toxicities (DLTs) (45 and 60 mg/day, N = 9): No dose-limiting toxicities were observed; also recorded: No DLTs were reported; also recorded: no DLTs or fatal events were observed | recommended phase 2 dose (RP2D) (Japanese patients): 60 mg/day | Grade 3 irAEs (N = 9): 7 patients | Grade ≤ 3 irAEs (N = 9): All patients experienced Grade ≤ 3 irAEs | Grade ≥ 3 diarrhea (N = 9): 33.3% | Grade ≥ 3 neutrophil count decreased (N = 9): 55.6% | discontinued due to SAEs (N = 9): 3 patients | dosing interrupted due to irAEs (N = 9): 7 patients | dosing interrupted due to neutrophil count decreased (N = 9): 1 patients | incidence of TEAEs ≥ Grade 3 (N = 9): 77.8% | number of serious AEs (SAEs) (N = 9): 6 | zandelisib discontinuation due to immune-related toxicities (N = 9): 4 patients | patients with serious AEs (SAEs) (N = 9, all Grade 3, treatment related): 44.4% | incidence of TEAEs in all patients (N = 9, all grades): 100% | TEAE ALT increased, All grades (Total, N = 9): 3 (33.3) n (%) | TEAE ALT increased, Grade ≥ 3 (Total, N = 9): 0 n (%) | TEAE AST increased, All grades (Total, N = 9): 5 (55.6) n (%) | TEAE AST increased, Grade ≥ 3 (Total, N = 9): 0 n (%) | TEAE Abdominal discomfort, All grades (Total, N = 9): 1 (11.1) n (%) | TEAE Abdominal discomfort, Grade ≥ 3 (Total, N = 9): 0 n (%) | TEAE Abdominal pain upper, All grades (Total, N = 9): 1 (11.1) n (%) | TEAE Abdominal pain upper, Grade ≥ 3 (Total, N = 9): 0 n (%) | TEAE Amylase increased, All grades (Total, N = 9): 1 (11.1) n (%) | TEAE Amylase increased, Grade ≥ 3 (Total, N = 9): 0 n (%) | TEAE Anemia, All grades (Total, N = 9): 1 (11.1) n (%) | TEAE Anemia, Grade ≥ 3 (Total, N = 9): 0 n (%) | TEAE Arthralgia, All grades (Total, N = 9): 2 (22.2) n (%) | TEAE Arthralgia, Grade ≥ 3 (Total, N = 9): 0 n (%) | TEAE Back pain, All grades (Total, N = 9): 1 (11.1) n (%) | TEAE Back pain, Grade ≥ 3 (Total, N = 9): 0 n (%) | TEAE Blepharitis, All grades (Total, N = 9): 1 (11.1) n (%) | TEAE Blepharitis, Grade ≥ 3 (Total, N = 9): 0 n (%) | TEAE Blood and lymphatic system disorders (SOC), All grades (Total, N = 9): 1 (11.1) n (%) | TEAE Blood and lymphatic system disorders (SOC), Grade ≥ 3 (Total, N = 9): 0 n (%) | TEAE Blood creatinine increased, All grades (Total, N = 9): 1 (11.1) n (%) | TEAE Blood creatinine increased, Grade ≥ 3 (Total, N = 9): 0 n (%) | TEAE Bradycardia, All grades (Total, N = 9): 1 (11.1) n (%) | TEAE Bradycardia, Grade ≥ 3 (Total, N = 9): 0 n (%) | TEAE CMV test positive, All grades (Total, N = 9): 3 (33.3) n (%) | TEAE CMV test positive, Grade ≥ 3 (Total, N = 9): 0 n (%) | TEAE Cardiac disorders (SOC), All grades (Total, N = 9): 1 (11.1) n (%) | TEAE Cardiac disorders (SOC), Grade ≥ 3 (Total, N = 9): 0 n (%) | TEAE Conjunctivitis, All grades (Total, N = 9): 2 (22.2) n (%) | TEAE Conjunctivitis, Grade ≥ 3 (Total, N = 9): 0 n (%) | TEAE Constipation, All grades (Total, N = 9): 4 (44.4) n (%) | TEAE Constipation, Grade ≥ 3 (Total, N = 9): 0 n (%) | TEAE Cough, All grades (Total, N = 9): 1 (11.1) n (%) | TEAE Cough, Grade ≥ 3 (Total, N = 9): 0 n (%) | TEAE Cytomegalovirus infection, All grades (Total, N = 9): 1 (11.1) n (%) | TEAE Cytomegalovirus infection, Grade ≥ 3 (Total, N = 9): 0 n (%) | TEAE Cytomegalovirus viremia, All grades (Total, N = 9): 1 (11.1) n (%)
